Assays:
COVID-19 patients = conditions: anticoagulant treatment, reference 49; cited from earlier work
[1] = test system: human pulmonary microvascular endothelial cells (hPMVEC); experiment: Basal intracellular nitric oxide production in hPMVEC (DAF-FM fluorescence) after hyaluronidase treatment
Description: Isolation and culture of human pulmonary microvascular endothelial cells (hPMVEC): hPMVEC were isolated from resected human lung as previously described (35, 36). Briefly, human peripheral lung tissue was finely minced, and digested in 0.3% type II collagenase at 37° C. The digested suspension was filtered, centrifuged, and washed in PBS. Endothelial cells were then isolated using magnetic Dynabeads coated with anti-human CD31 antibody. Isolated cells were resuspended in EGM-2 (Lonza #CC-3162) with 10% fetal bovine serum and placed at 37° C. in 5% CO2 until 50% confluent, then harvested and re-purified using anti-CD31-coated magnetic microbeads as above. PMVEC were propagated in EGM-2+10% FBS and 20 mM HEPES on fibronectin-coated flasks and passages 4-9 used.
Hyaluronidase treatment of hPMVEC: PMVEC (2.5×10^4/well) were plated on fibronectin-coated 4-well plates in EGM-2+10% FBS and 20 mM HEPES. After 2 days, media was changed to HBSS (+100 mM HEPES, no bicarb)+0.01% BSA and hPMVEC were treated for 1 h with hyaluronidase (0.5 mg/mL; Sigma #H3506). Following treatment, hPMVEC were loaded with a nitric oxide-sensitive fluorochrome (2 μM DAF-FM DA (Thermo Fisher #D23844) for 1h before lysing with 0.5% SDS in PBS. After centrifugation for 10 min at 1×10^4RCF, the fluorescence of triplicate aliquots of supernatant were measured using a Victor3 multilabel fluorescence microplate reader (Wallac Oy; Perkin Elmer, Inc.) at 485/520 for DAF-FM. The nitric oxide donor DETA NONOate (20 μM; Cayman #82120) was used as the positive control.

Compound: low molecular weight heparin
- overall survival advantage (COVID-19 patients): did not confer an overall survival advantage

Compound: Hyaluronidase
- decrease of basal intracellular nitric oxide production ([1]; hyaluronidase 0.5 mg/mL for 1 h, compared to untreated PMVEC, n=5 separate experiments, P=0.008): 98%
- basal intracellular nitric oxide production after treatment (DAF-FM fluorescence) ([1]; hyaluronidase 0.5 mg/mL for 1 h, n=5 separate experiments): 64±87.5 RFUs

Compound: NCCN(CCN)/[N+]([O-])=N/O [DETA NONOate]
- increase of nitric oxide production ([1]; positive control at 20 μM, compared to untreated controls (data not shown)): 16%
